Like-named read-outs stand apart in the source and are kept apart here.
Columns and labels:
physchem = conditions: HPLC, Ascentis Express RP Amide column
[1] = test system: Leishmania infantum MHOM/MA(BE)/67/ITMAP263 intracellular amastigotes; assay: microbe, parasite or virus in culture; conditions: Macrophage, in Mus musculus
in vitro [2] = conditions: human
in vitro [3] = conditions: human, microsomes; for microsomal CLint at 0.5 μM: pH 7.4, HLM CLint, human liver microsomes; for microsomal CLint at 0.5 h, 0.5 µM: pH 7.4, Microsome Clint,u Human, Table 2, intrinsic in vitro clearance, liver microsomes
in vitro [4] = conditions: Swiss, mouse
[5] = test system: Trypanosoma cruzi, Tulahuen CL2, beta-galactosidase strain; assay: microbe, parasite or virus in culture; conditions: MRC5, read-out: T. cruzi Tulahuen C4 (LacZ) IC50
[6] = test system: primary peritoneal mouse macrophages (PMM); conditions: PMM IC50 / L. infantum IC50
in vitro [7] = conditions: mouse, microsomes; for microsomal CLint at 0.5 μM: pH 7.4, MLM CLint, mouse liver microsomes; for microsomal CLint at 0.5 h, 0.5 µM: pH 7.4, Microsome Clint,u Mouse, Table 2, intrinsic in vitro clearance, liver microsomes
[8] = test system: Leishmania infantum MHOM/MA(BE)/67/ITMAP263 intracellular amastigotes; conditions: intracellular amastigotes in PMM
[9] = test system: Leishmania infantum (MHOM/MA/67/ITMAP-263) intracellular amastigotes in THP-1; assay: microbe, parasite or virus in culture; conditions: THP-1, 120 h, read-out: Intracellular activity pIC50 L. inf. in THP-1 (converted)
in vitro [10] = conditions: human, PMA-differentiated THP-1 cells
[11] = test system: primary peritoneal mouse macrophages (PMM); assay: cells; conditions: Macrophage, read-out: PMM pIC50 (converted)
[12] = read-out: L. Inf. pIC50, from L. infantum intracellular amastigote IC50 (converted)
[13] = read-out: L. infantum MHOM/MA(BE)/67/ITMAP263 intracellular amastigotes IC50
[14] = read-out: L. inf. pIC50, intracellular amastigotes in PMM (converted), geometric mean of a minimum of two experiments ± standard error

| Compound | chromatographic logD (physchem; pH 7.4, eLogD) | IC50 [1, 12] | IC50 [1, 13] | CC50 at 3 days (in vitro [2]) | microsomal CLint at 0.5 μM (in vitro [3]) | IC50 (in vitro [4]) | IC50 [5] | SI (vs PMM) [6] | microsomal CLint at 0.5 μM (in vitro [7]) | potency against L. inf. in words [8] | IC50 [1, 14] | IC50 [9] | microsomal CLint at 0.5 h, 0.5 µM (in vitro [7]) | microsomal CLint at 0.5 h, 0.5 µM (in vitro [3]) | IC50 at 120 h (in vitro [10]) | IC50 [11] | chromatographic logD (physchem; pH 7.4, elog D, HPLC measured log D, pH 7.4) |
| --- | --- | --- | --- | --- | --- | --- | --- | --- | --- | --- | --- | --- | --- | --- | --- | --- | --- |
| CCN(Cc1ccc(F)cc1)S(=O)(=O)c1cc(Cl)ccc1OC [DNDI0003366065] | 4.4 | 21.9 µM | 22 µM | 59.5 µM | 352 µL/min/mg | > 64 µM | 6.88 µM | 3 | – | – | – | – | – | – | – | – | – |
| COc1ccc(Cl)cc1S(=O)(=O)N(CCN(C)C)Cc1ccccc1 [DNDI0003366090] | 4 | 6.17 µM | 6.14 µM | 26.7 µM | 1190 µL/min/mg | 45.2 µM | 32.7 µM | 7 | 120 µL/min/mg | – | – | – | – | – | – | – | – |
| COCCN(C(C)=O)c1ccc(S(=O)(=O)N(CCOC)Cc2ccccc2)cc1 [DNDI0003366101] | 3.1 | > 64 µM | > 64 µM | > 64 µM | 73 µL/min/mg | > 64 µM | > 64 µM | 1 | 227 µL/min/mg | – | – | – | – | – | – | – | – |
| COc1ccc(F)cc1S(=O)(=O)N(Cc1ccccc1)Cc1ccccc1 [DNDI0003366071] | – | 1.38 µM | 1.37 µM | > 64 µM | 955 µL/min/mg | > 64 µM | 6.82 µM | 47 | – | – | – | – | – | – | – | – | – |
| Cc1cc(C)c(C#N)c(SCSc2nc(C)cc(C)c2C#N)n1 [DNDI0003297456] | – | > 64 µM | > 64 µM | > 64 µM | – | > 64 µM | > 64 µM | 1 | – | – | – | – | – | – | – | – | – |
| COc1ccc(OC)c(S(=O)(=O)N(CCO)Cc2ccccc2)c1 [DNDI0003366067] | 2.9 | 52.5 µM | 52.5 µM | > 64 µM | 161 µL/min/mg | > 64 µM | 51.2 µM | 1 | – | – | – | – | – | – | – | – | – |
| CC(=O)Nc1ccc(S(=O)(=O)N(CCN(C)C)Cc2ccccc2)cc1 [DNDI0003366091] | 3 | > 64 µM | > 64 µM | > 64 µM | 95 µL/min/mg | > 64 µM | > 64 µM | 1 | 42 µL/min/mg | – | – | – | – | – | – | – | – |
| CCN(Cc1ccccc1)S(=O)(=O)c1ccccc1Br [DNDI0003365405] | 4.2 | 33.9 µM | 33.9 µM | > 64 µM | 88 µL/min/mg | > 64 µM | 13.8 µM | 2 | 235 µL/min/mg | – | – | – | – | – | – | – | – |
| COc1ccc(OC)c(S(=O)(=O)N(Cc2ccc(F)cc2)Cc2ccc(F)cc2)c1 [DNDI0003366069] | – | 0.537 µM | 0.54 µM | > 64 µM | – | > 64 µM | 6.35 µM | 119 | – | – | – | – | – | – | – | – | – |
| CCN(Cc1ccccc1)S(=O)(=O)c1cc(F)ccc1F [DNDI0003364474] | 4.2 | 33.9 µM | 33.9 µM | 45.2 µM | 205 µL/min/mg | > 64 µM | 30.1 µM | 2 | 705 µL/min/mg | – | – | – | – | – | – | – | – |
| CCCCC(=O)Nc1cccnc1S(=O)(=O)CCOc1ccccc1 [DNDI0003363560] | – | 32.4 µM | 32.5 µM | 29.7 µM | – | 32 µM | 14.7 µM | 1 | – | – | – | – | – | – | – | – | – |
| COc1ccc(C(=O)N2CCOCC2)cc1S(=O)(=O)N(Cc1ccc(C(F)(F)F)nc1)CC(C)(C)C [Compound 48] | – | – | – | – | – | – | – | – | – | inactive | 45.7 µM | > 64.6 µM | 379 µL/min/mg | 143 µL/min/mg | > 64.6 µM | > 64.6 µM | – |
| COc1ccc(C(=O)N2CCOCC2)cc1S(=O)(=O)N(Cc1ccccc1)CC(C)(C)C [Compound 45] | – | – | – | – | – | – | – | – | – | – | 1 µM | 27.5 µM | 2580 µL/min/mg | 1600 µL/min/mg | > 64.6 µM | > 64.6 µM | 3.8 |

Source: publication PMC8126888 (RSC Medicinal Chemistry, 2020)
